Measured values published in US9102614B2, “Naphth-2-ylacetic acid derivatives to treat AIDS” (Gilead Sciences, Inc., priority 2010, dated 2015).

System: HIV-IIIb
Assay: Test A: Antiviral Assays in MT4 Cells
Format: cell-based
Settings: Human immunodeficiency virus 1, IIIB, MT4, 120 h
Method in brief: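 MT-4 cells pre-infected with HIV-IIIb (0.004 m.o.i.) at 37 °C, then plated with 3-fold serially diluted compound (10 concentrations, quadruplicate, RPMI 1640/10% FBS). After 5 days at 37 °C, cell viability read by CellTiter-Glo chemiluminescence; mock-infected cells run in parallel.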

SMILES	EC50
Cc1cc2c(F)cc(F)cc2c(-c2ccc3c4c(ccnc24)CCO3)c1[C@H](OC(C)(C)C)C(=O)O [Compound 110, (S)-2-tert-Butoxy-2-((R)-1-(2,3-dihydropyrano[4,3,2-de]quinolin-7-yl)-5,7-difluoro-3-methylnaphthalen-2-yl)acetic acid]	67 nM

Same assay, conditions: Human immunodeficiency virus 1, IIIB, MT4, 120 h, MT-4 cells infected with HIV-IIIb (0.004 m.o.i.), 5 days of incubation, CellTiter-Glo chemiluminescence readout; read-out: EC50

SMILES	EC50
Cc1c(C(OC(C)(C)C)C(=O)O)c(-c2ccc(Cl)cc2)c2ccccc2c1C (centres unmarked) [Compound 127, 2-tert-Butoxy-2-(1-(4-chlorophenyl)-3,4-dimethylnaphthalen-2-yl)acetic acid]	87 nM
Cc1cc2ccc(C#CC(C)(C)O)cc2c(-c2ccc(Cl)cc2)c1C(OC(C)(C)C)C(=O)O (centres unmarked) [Compound 69, 2-tert-butoxy-2-(1-(4-chlorophenyl)-7-(3-hydroxy-3-methylbut-1-ynyl)-3-methylnaphthalen-2-yl)acetic acid]	380 nM
Cc1cc2cc(C(N)=O)c(F)cc2c(-c2ccc3c4c(ccnc24)CCO3)c1[C@H](OC(C)(C)C)C(=O)O (atropisomer, axis not shown) [Compound 168]	45000 nM
Cc1cc2ccccc2c(C2=CCCC2)c1[C@H](OC(C)(C)C)C(=O)O [Compound 12, (S)-2-tert-Butoxy-2-(1-cyclopentenyl-3-methylnaphthalen-2-yl)acetic acid]	110 nM
CCc1cc2ccccc2c(-c2ccc(Cl)cc2)c1[C@H](OC(C)(C)C)C(=O)O [Compound 29B, (S)-2-tert-butoxy-2-(1-(4-chlorophenyl)-3-ethylnaphthalen-2-yl)acetic acid]	500 nM
Cc1cc2ccccc2c(-c2ccc(C(F)(F)F)c3cccnc23)c1[C@H](OC(C)(C)C)C(=O)O [Compound 175]	20000 nM
Cc1cc2ccccc2c(C2=CC(C)(C)CCC2=O)c1[C@H](OC(C)(C)C)C(=O)O [Compound 11, (S)-2-tert-Butoxy-2-(1-(3,3-dimethyl-6-oxocyclohex-1-enyl)-3-methylnaphthalen-2-yl)acetic acid]	8900 nM
CC(C)(C)O[C@H](C(=O)O)c1c(CF)cc2ccccc2c1-c1ccc2c3c(ccnc13)CCO2 [Compound 31, (S)-2-tert-Butoxy-2-((R)-1-(2,3-dihydropyrano[4,3,2-de]quinolin-7-yl)-3-(fluoromethyl)naphthalen-2-yl)acetic acid]	110 nM
COC(=O)NC(C)(C)C#Cc1ccc2cc(C)c(C(OC(C)(C)C)C(=O)O)c(-c3ccc(Cl)cc3)c2c1 (centres unmarked) [Compound 97, 2-tert-Butoxy-2-(1-(4-chlorophenyl)-7-(3-(methoxycarbonylamino)-3-methylbut-1-ynyl)-3-methylnaphthalen-2-yl)acetic acid]	300 nM
Cc1cc2ccccc2c(-c2ccc(Cl)cc2Cl)c1C(OC(C)(C)C)C(=O)O (centres unmarked) [Compound 33, tert-Butoxy-[1-(2,4-dichloro-phenyl)-3-methyl-naphthalen-2-yl]-acetic acid]	120 nM
Cc1cc2ccccc2c(-c2cccc3cccnc23)c1[C@H](OC(C)(C)C)C(=O)O [Compound 4L, (S)-2-tert-butoxy-2-((S)-3-methyl-1-(quinolin-8-yl)naphthalen-2-yl)acetic acid]	22000 nM
Cc1cc2ccccc2c(C2=CCC(C)CC2)c1[C@H](OC(C)(C)C)C(=O)O (stereo partly drawn) [Compound 13, (2S)-2-tert-Butoxy-2-(3-methyl-1-(4-methylcyclohex-1-enyl)naphthalen-2-yl)acetic acid]	10 nM
Cc1cc2ccccc2c(-c2ccc(Cl)cc2)c1[C@H](OC(C)(C)C)C(=O)O [Compound 3K, (S)-2-tert-butoxy-2-(1-(4-chlorophenyl)-3-methylnaphthalen-2-yl)acetic acid]	56 nM
Cc1cc2ccc(C#CC(C)(C)C)cc2c(-c2ccc(Cl)cc2)c1C(OC(C)(C)C)C(=O)O (centres unmarked) [Compound 72, 2-tert-Butoxy-2-(1-(4-chlorophenyl)-7-(3,3-dimethylbut-1-ynyl)-3-methylnaphthalen-2-yl)acetic acid]	2000 nM
Cc1cc2c(F)cccc2c(-c2ccc3c4c(ccnc24)CCO3)c1C(OC(C)(C)C)C(=O)O (centres unmarked) [Compound 44, 2-tert-Butoxy-2-(1-(2,3-dihydropyrano[4,3,2-de]quinolin-7-yl)-5-fluoro-3-methylnaphthalen-2-yl)acetic acid]	120 nM
Cc1cc2cc(F)c(F)cc2c(-c2ccc3c4c(ccnc24)CCO3)c1[C@H](OC(C)(C)C)C(=O)O (atropisomer, axis not shown) [Compound 174]	3200 nM
Cc1c(C(OC(C)(C)C)C(=O)O)c(-c2ccc(Cl)cc2)c2ccccc2c1CCCN(C)C (centres unmarked) [Compound 132, 2-tert-Butoxy-2-(1-(4-chlorophenyl)-4-(3-(dimethylamino)propyl)-3-methylnaphthalen-2-yl)acetic acid]	118 nM
Cc1cc2cc(-c3cn(C)cn3)ccc2c(-c2ccc(Cl)cc2)c1[C@H](OC(C)(C)C)C(=O)O [Compound 64, (S)-2-tert-Butoxy-2-(1-(4-chlorophenyl)-3-methyl-6-(1-methyl-1H-imidazol-4-yl)naphthalen-2-yl)acetic acid]	52 nM
Cc1c([C@H](OC(C)(C)C)C(=O)O)c(-c2ccc3c4c(ccnc24)CCO3)c2ccccc2c1F (atropisomer, axis not shown) [Compound 178]	34000 nM
Cc1cc2ccc(C#CC3(N)CCCCC3)cc2c(-c2ccc(Cl)cc2)c1[C@H](OC(C)(C)C)C(=O)O [Compound 100, (S)-2-(7-((1-Aminocyclohexyl)ethynyl)-1-(4-chlorophenyl)-3-methylnaphthalen-2-yl)-2-tert-butoxyacetic acid]	23 nM
Cc1cc2cc(C(F)F)c(F)cc2c(-c2ccc3c4c(ccnc24)CCO3)c1[C@H](OC(C)(C)C)C(=O)O (atropisomer, axis not shown) [Compound 164]	25000 nM
Cc1cc2ccc(C#Cc3cncn3C)cc2c(-c2ccc(Cl)cc2)c1C(OC(C)(C)C)C(=O)O (centres unmarked) [Compound 81, 2-tert-Butoxy-2-(1-(4-chlorophenyl)-3-methyl-7-((1-methyl-1H-imidazol-5-yl)ethynyl)naphthalen-2-yl)acetic acid]	150 nM
Cc1cc2ccc(C#CC(C)(C)N)cc2c(-c2ccc3c(c2)CCCO3)c1C(OC(C)(C)C)C(=O)O (centres unmarked) [Compound 87, 2-(7-(3-Amino-3-methylbut-1-ynyl)-1-(chroman-6-yl)-3-methylnaphthalen-2-yl)-2-tert-butoxyacetic acid]	72 nM

Same assay, conditions: MT-4 cells infected with HIV-IIIb (0.004 m.o.i.), 5 days of incubation, CellTiter-Glo chemiluminescence readout; read-out: EC50

SMILES	EC50
CCc1cc2cc(C)c([C@H](OC(C)(C)C)C(=O)O)c(-c3ccc4c5c(ccnc35)CCO4)c2cc1F [Compound 104, (S)-2-tert-Butoxy-2-((R)-1-(2,3-dihydropyrano[4,3,2-de]quinolin-7-yl)-6-ethyl-7-fluoro-3-methylnaphthalen-2-yl)acetic acid]	36 nM
Cc1cc2cc(C(C)C)c(F)cc2c(-c2ccc3c4c(ccnc24)CCO3)c1[C@H](OC(C)(C)C)C(=O)O [Compound 102, (S)-2-tert-Butoxy-2-((R)-1-(2,3-dihydropyrano[4,3,2-de]quinolin-7-yl)-7-fluoro-6-isopropyl-3-methylnaphthalen-2-yl)acetic acid]	37 nM
Cc1cc2ccccc2c(-c2cc(F)cc3cccnc23)c1[C@H](OC(C)(C)C)C(=O)O [Compound 158]	35000 nM
Cc1cc2cc(C)c([C@H](OC(C)(C)C)C(=O)O)c(-c3ccc4c5c(ccnc35)CCO4)c2cc1F [Compound 112, (S)-2-tert-Butoxy-2-((R)-1-(2,3-dihydropyrano[4,3,2-de]quinolin-7-yl)-7-fluoro-3,6-dimethylnaphthalen-2-yl)acetic acid]	9 nM
Cc1cc2cc(C(F)F)c(F)cc2c(-c2ccc3c4c(ccnc24)CCO3)c1[C@H](OC(C)(C)C)C(=O)O [Compound 103, (S)-2-tert-Butoxy-2-((R)-6-(difluoromethyl)-1-(2,3-dihydropyrano[4,3,2-de]quinolin-7-yl)-7-fluoro-3-methylnaphthalen-2-yl)acetic acid]	26 nM
Cc1cc2ccccc2c(-c2cc(F)cc3cccnc23)c1[C@H](OC(C)(C)C)C(=O)O (atropisomer, axis not shown) [Compound 9, (S)-2-tert-Butoxy-2-(1-((R)-6-fluoroquinolin-8-yl)-3-methylnaphthalen-2-yl)acetic acid]	1300 nM
Cc1cc2cc(F)c(F)cc2c(-c2ccc3c4c(ccnc24)CCO3)c1[C@@H](OC(C)(C)C)C(=O)O [Compound 109, (R)-2-tert-Butoxy-2-((R)-1-(2,3-dihydropyrano[4,3,2-de]quinolin-7-yl)-6,7-difluoro-3-methylnaphthalen-2-yl)acetic acid]	29000 nM
Cc1cc2ccccc2c(-c2ccc3c4c(ccnc24)CCO3)c1[C@H](OC(C)(C)C)C(=O)O [Compound 6D, (S)-2-tert-Butoxy-2-((R)-1-(2,3-dihydropyrano[4,3,2-de]quinolin-7-yl)-3-methylnaphthalen-2-yl)acetic acid]	14 nM
Cc1cc2c(F)c(CN(C)C)ccc2c(-c2ccc3c4c(ccnc24)CCO3)c1[C@H](OC(C)(C)C)C(=O)O [Compound 186A, (S)-2-tert-butoxy-2-((R)-1-(2,3-dihydropyrano[4,3,2-de]quinolin-7-yl)-6-((dimethylamino)methyl)-5-fluoro-3-methylnaphthalen-2-yl)acetic acid]	1690 nM
CNC(=O)c1cc2cc(C)c([C@H](OC(C)(C)C)C(=O)O)c(-c3ccc4c5c(ccnc35)CCO4)c2cc1F [Compound 107, (S)-2-tert-Butoxy-2-((R)-1-(2,3-dihydropyrano[4,3,2-de]quinolin-7-yl)-7-fluoro-3-methyl-6-(methylcarbamoyl)naphthalen-2-yl)acetic acid]	92 nM
Cc1cc2ccccc2c(-c2cccc3cccnc23)c1[C@H](OC(C)(C)C)C(=O)O [Compound 4K, (S)-2-tert-butoxy-2-((R)-3-methyl-1-(quinolin-8-yl)naphthalen-2-yl)acetic acid]	301 nM
